Source: US12698507B2, “Methods and compositions for conferring and/or enhancing herbicide tolerance using protoporphyrinogen IX oxidase of various cyanobacteria or variant thereof” (FarmHannong Co., Ltd., priority 2019, dated 2026)
Where two headings read alike, the source gives them in different places.

Key:
[1] = test system: PPO-deficient BT3 E. coli (ΔPPO) transformed with CyPPO19 variant V165C+F360V (Thermosynechococcus elongatus PKUAC-SCTE542, SEQ ID NO: 1); assay: Herbicide tolerance test in E. coli, CyPPO19 V165C+F360V; type: cell-based; conditions: LB agar, 0 to 2,000 μM herbicide, 37° C., 16-20 hours
From the text: (§1) To enhance the PPO-inhibiting herbicide resistance of CyPPO19 and CyPPO18, PPO variant genes of the above example 2 were constructed. They were transformed to BT3 (ΔPPO) strain which is deficient of PPO activity and cultured in LB media with PPO-inhibiting herbicide, thereby examining whether growth of transformed BT3 was not inhibited.
(§2) BT3 competent cells were transformed with the pET303-CyPPO19 (wild type), pET303-CyPPO18 (wild type) plasmids, and those with a mutation(s) constructed (refer to example 2) via heat shock method, and were cultured in LB agar media containing ampicillin.
(§3) Single colony transformed with each CyPPO gene was cultured in 3 mL of LB broth (LPSS) containing ampicillin for more than 12 hours, and then was subcultured in LB broth until absorbance (OD600) reached 0.5 to 1. Then, it was diluted with LB broth to OD600=0.5. Again, the diluted solution was serially diluted 4 times by a factor of one tenth. […]
(§4) Then, 10 μL of each diluted solution of E. coli was dropped on the plate and cultured at 37° C. under dark for 16-20 hours. PPO-inhibiting herbicide resistance was evaluated with the extent of E. coli growth containing each gene was observed.
(§5) The extent of herbicide resistance was evaluated by the relative growth of variants to that of wild type, and listed in Tables 9 and 10 and FIGS. 3 to 32. […]

[2] = test system: PPO-deficient BT3 E. coli (ΔPPO) transformed with CyPPO18 variant R89A+V165C+F360I (Thermosynechococcus vulcanus NIES-2134, SEQ ID NO: 3); assay: Herbicide tolerance test in E. coli, CyPPO18 R89A+V165C+F360I; type: cell-based; design: key to the marks not given beside the values; conditions: LB agar, 0 to 2,000 μM herbicide, 37° C., 16-20 hours
From the text: as §1, §2, §3, §4, §5

[3] = biological target: Thermosynechococcus elongatus PKUAC-SCTE542 protoporphyrinogen IX oxidase CyPPO19 (SEQ ID NO: 1) variant A167C (MBP fusion) (Thermosynechococcus sichuanensis, UniProt A0A7D6JSC1, A167C); assay: biochemical
[4] = biological target: Thermosynechococcus vulcanus NIES-2134 protoporphyrinogen IX oxidase CyPPO18 (SEQ ID NO: 3) variant L327T (MBP fusion) (Thermosynechococcus vestitus, UniProt Q8DLV2, L327T); assay: PPO enzyme inhibition assay (IC50 for herbicides), CyPPO18 L327T fused to MBP; type: biochemical; conditions: 50 μM protoporphyrinogen IX, pH 7.5, room temperature, 30 min
[5] = biological target: Thermosynechococcus vulcanus NIES-2134 protoporphyrinogen IX oxidase CyPPO18 (SEQ ID NO: 3) variant A167C (MBP fusion) (Thermosynechococcus vestitus, UniProt Q8DLV2, A167C); assay: PPO enzyme inhibition assay (IC50 for herbicides), CyPPO18 A167C fused to MBP; type: biochemical; conditions: 50 μM protoporphyrinogen IX, pH 7.5, room temperature, 30 min
[6] = biological target: Thermosynechococcus vulcanus NIES-2134 protoporphyrinogen IX oxidase CyPPO18 (SEQ ID NO: 3) variant V165C (MBP fusion) (Thermosynechococcus vestitus, UniProt Q8DLV2, V165C); type: biochemical; conditions: 50 μM protoporphyrinogen IX, pH 7.5, room temperature, 30 min
[7] = test system: PPO-deficient BT3 E. coli (ΔPPO) transformed with CyPPO19 variant R89A+F360V (Thermosynechococcus elongatus PKUAC-SCTE542, SEQ ID NO: 1); assay: Herbicide tolerance test in E. coli, CyPPO19 R89A+F360V; type: cell-based; conditions: LB agar, 0 to 2,000 μM herbicide, 37° C., 16-20 hours
From the text: as §1, §2, §3, §4, §5

Thermosynechococcus vulcanus NIES-2134 protoporphyrinogen IX oxidase CyPPO18 (SEQ ID NO: 3) variant A167C (MBP fusion), sequence (Q8DLV2 entry or part of it A167C): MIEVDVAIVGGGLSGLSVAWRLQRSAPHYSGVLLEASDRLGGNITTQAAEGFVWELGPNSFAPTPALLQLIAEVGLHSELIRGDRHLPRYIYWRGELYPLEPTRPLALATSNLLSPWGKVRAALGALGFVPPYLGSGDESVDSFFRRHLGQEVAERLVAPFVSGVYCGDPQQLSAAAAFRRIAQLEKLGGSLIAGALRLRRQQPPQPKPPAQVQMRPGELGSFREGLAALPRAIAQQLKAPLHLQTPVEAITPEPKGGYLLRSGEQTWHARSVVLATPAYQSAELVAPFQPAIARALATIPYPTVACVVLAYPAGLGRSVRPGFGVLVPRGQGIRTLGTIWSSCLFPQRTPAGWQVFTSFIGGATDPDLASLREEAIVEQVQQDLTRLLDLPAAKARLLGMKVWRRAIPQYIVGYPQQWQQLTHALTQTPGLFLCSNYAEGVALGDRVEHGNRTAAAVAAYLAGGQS
Thermosynechococcus vulcanus NIES-2134 protoporphyrinogen IX oxidase CyPPO18 (SEQ ID NO: 3) variant V165C (MBP fusion), sequence (Q8DLV2 entry or part of it V165C): as the sequence (Q8DLV2 entry or part of it A167C) above, with V165C, C167A counted along it
Thermosynechococcus elongatus PKUAC-SCTE542 protoporphyrinogen IX oxidase CyPPO19 (SEQ ID NO: 1) variant A167C (MBP fusion), sequence (A0A7D6JSC1 entry or part of it A167C): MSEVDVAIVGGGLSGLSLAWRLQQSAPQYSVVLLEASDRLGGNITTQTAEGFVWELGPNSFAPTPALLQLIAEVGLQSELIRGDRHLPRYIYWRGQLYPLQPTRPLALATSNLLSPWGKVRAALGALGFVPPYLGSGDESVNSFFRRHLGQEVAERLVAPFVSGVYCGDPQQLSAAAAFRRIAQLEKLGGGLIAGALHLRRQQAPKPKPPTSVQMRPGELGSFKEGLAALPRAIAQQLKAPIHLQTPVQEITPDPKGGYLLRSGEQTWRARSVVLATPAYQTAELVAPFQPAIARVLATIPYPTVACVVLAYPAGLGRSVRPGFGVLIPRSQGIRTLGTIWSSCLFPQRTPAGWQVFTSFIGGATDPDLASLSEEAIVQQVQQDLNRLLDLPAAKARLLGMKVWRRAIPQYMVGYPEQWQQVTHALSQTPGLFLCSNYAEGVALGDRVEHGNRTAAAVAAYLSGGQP
Thermosynechococcus vulcanus NIES-2134 protoporphyrinogen IX oxidase CyPPO18 (SEQ ID NO: 3) variant L327T (MBP fusion), sequence (Q8DLV2 entry or part of it L327T): as the sequence (Q8DLV2 entry or part of it A167C) above, with C167A, L327T counted along it

Row | Structure (SMILES) | tolerance level (relative growth of variant to wild type) [1] | tolerance level (relative growth of variant to wild type) [2] | IC50 ([3]; CyPPO19 A167C, 50 μM protoporphyrinogen IX, pH 7.5, room temperature, 30 min) [nM] | IC50 [4] [nM] | IC50 [5] [nM] | IC50 [6] [nM] | tolerance level (relative growth of variant to wild type) [7] | IC50 [3] [nM]
1 | Cc1nn(-c2cc(CC(Cl)C(=O)O)c(Cl)cc2F)c(=O)n1C(F)F (centres unmarked) [Carfentrazone] | + | ++ | 3530 | 723 | 1880 | 1220 | + | –
2 | CCOc1cc(Oc2ccc(C(F)(F)F)cc2Cl)ccc1[N+](=O)[O-] [Oxyfluorfen] | ++ | ++ | – | 3600 | 570 | 502 | + | 649
